Test results reported in patent US5160526A, “Alkene stabilizers for 3-isothiazolone compounds” (priority 1991, dated 1992).
Where two headings read alike, the source gives them in different places. Each block holds one compound with its values, some of them ahead of it.

Tests used:
[1] = assay type: physicochemical; details: for 2-Methyl (%) / 5-Chloro (%): DPG, 55° C
Protocol: This solution was distributed into 6 vials (3 g each) and varying amounts of cyclohexene were added. The vials were then heated at 55° C. and analyzed periodically.

[2] = Stabilization of 5-Chloro and 2-Methyl mixture by norbornene in dipropylene glycol containing 0.5% water, 55° C oven; assay type: physicochemical; details: DPG (0.5% water)
Protocol: To 19.9 g of dipropylene glycol was added 0.1 g of water. […] This solution was distributed into 6 vials and varying amounts of norbornene were added.

[3] = assay type: physicochemical; details: 2-propanol, 55° C
Protocol: Varying amounts of DHP were added and the vials put in a 55° C. oven. Active ingredient analysis was done periodically.

[4] = Stabilization of 5-Chloro and 2-Methyl mixture by norbornene in 2-propanol, 55° C oven; assay type: physicochemical
From the text: This solution was distributed into 6 vials and varying amounts of norbornene added.

[5] = 2-propanol + 2% water, 55° C
Protocol: A solution of 5-chloro-2methyl-3-isothiazolone ("5-Chloro") and 2-methyl-3-isothiazolone ("2-Methyl") (3.11 g) was prepared in 2-propanol (12.1 g). This solution was distributed in 6 vials. Water (2%) and varying amounts of norbornene were then added. These were then put in a 55° C. oven and analyzed periodically.

[6] = assay type: physicochemical; details: kerosene/diethylene glycol butyl ether
Protocol: In a formulation comprised of 3 parts by weight of a mixture of 5-chloro-2-methyl-3-isothiazolone and 2-methyl-3-isothiazolone in a 3:1 ratio, 94 parts by weight of a mixture of kerosene […] and diethylene glycol butyl ether (20 parts by weight), 3 parts by weight norbornene stabilizer was added. The control had no norbornene.
Example 9 was repeated except using 1 part by weight norbornene. No loss of 5-chloro-2-methyl-3-isothiazolone was observed after eight weeks at 55° C.
Example 9 was repeated except using 1-tetradecene as stabilizer resulting in 86% 5-chloro-2-methyl-3-isothiazolone remaining after four weeks at 55° C. and complete loss by eight weeks.

Compound: Cn1sc(Cl)cc1=O [5-chloro-2-methyl-3-isothiazolone]
2-Methyl (%) / 5-Chloro (%) ([1]; 0% cyclohexene, 0 days): 11.4%
2-Methyl (%) / 5-Chloro (%) ([1]; 0% cyclohexene, 13 days): < 0.1%
2-Methyl (%) / 5-Chloro (%) ([1]; 3.2% cyclohexene, 0 days): 10.1%
2-Methyl (%) / 5-Chloro (%) ([1]; 3.2% cyclohexene, 13 days): 0.19%
2-Methyl (%) / 5-Chloro (%) ([1]; 6.8% cyclohexene, 0 days): 10.9%
2-Methyl (%) / 5-Chloro (%) ([1]; 6.8% cyclohexene, 13 days): 0.10%
2-Methyl (%) / 5-Chloro (%) ([1]; 9.1% cyclohexene, 0 days): 10.6%
2-Methyl (%) / 5-Chloro (%) ([1]; 9.1% cyclohexene, 13 days): 8.6%
2-Methyl (%) / 5-Chloro (%) ([1]; 9.1% cyclohexene, 30 days): 0.0%
2-Methyl (%) / 5-Chloro (%) ([1]; 11.8% cyclohexene, 0 days): 10.5%
2-Methyl (%) / 5-Chloro (%) ([1]; 11.8% cyclohexene, 13 days): 7.9%
2-Methyl (%) / 5-Chloro (%) ([1]; 11.8% cyclohexene, 30 days): 0.0%
2-Methyl (%) / 5-Chloro (%) ([1]; 16.7% cyclohexene, 0 days): 10.2%
2-Methyl (%) / 5-Chloro (%) ([1]; 16.7% cyclohexene, 13 days): 9.0%
2-Methyl (%) / 5-Chloro (%) ([1]; 16.7% cyclohexene, 30 days): 0.0%
2-Methyl (%) / 5-Chloro (%) ([2]; 0% norbornene, 0 days): 11.7%
2-Methyl (%) / 5-Chloro (%) ([2]; 0% norbornene, 14 days): 0.0%
2-Methyl (%) / 5-Chloro (%) ([2]; 0% norbornene, 30 days): 0%
2-Methyl (%) / 5-Chloro (%) ([2]; 1.6% norbornene, 0 days): 11.7%
2-Methyl (%) / 5-Chloro (%) ([2]; 1.6% norbornene, 14 days): 0%
2-Methyl (%) / 5-Chloro (%) ([2]; 3.2% norbornene, 0 days): 11.5%
2-Methyl (%) / 5-Chloro (%) ([2]; 3.2% norbornene, 14 days): 10.4%
2-Methyl (%) / 5-Chloro (%) ([2]; 3.2% norbornene, 30 days): 0.1%
2-Methyl (%) / 5-Chloro (%) ([2]; 6.5% norbornene, 0 days): 11.2%
2-Methyl (%) / 5-Chloro (%) ([2]; 6.5% norbornene, 14 days): 10.8%
2-Methyl (%) / 5-Chloro (%) ([2]; 6.5% norbornene, 30 days): 10.1%
2-Methyl (%) / 5-Chloro (%) ([2]; 9.0% norbornene, 0 days): 11.0%
2-Methyl (%) / 5-Chloro (%) ([2]; 9.0% norbornene, 14 days): 10.7%
2-Methyl (%) / 5-Chloro (%) ([2]; 9.0% norbornene, 30 days): 10.4%
2-Methyl (%) / 5-Chloro (%) ([2]; 14.3% norbornene, 0 days): 10.5%
2-Methyl (%) / 5-Chloro (%) ([2]; 14.3% norbornene, 14 days): 10.2%
2-Methyl (%) / 5-Chloro (%) ([2]; 14.3% norbornene, 30 days): 9.7%
2-Methyl (%) / 5-Chloro (%) ([3]; 0% DHP, 0 days): 11.6%
2-Methyl (%) / 5-Chloro (%) ([3]; 0% DHP, 12 days): 0.4%
2-Methyl (%) / 5-Chloro (%) ([3]; 3.5% DHP, 0 days): 11.1%
2-Methyl (%) / 5-Chloro (%) ([3]; 3.5% DHP, 12 days): 0.1%
2-Methyl (%) / 5-Chloro (%) ([3]; 6.3% DHP, 0 days): 10.8%
2-Methyl (%) / 5-Chloro (%) ([3]; 6.3% DHP, 12 days): 0.1%
2-Methyl (%) / 5-Chloro (%) ([3]; 11.8% DHP, 0 days): 10.2%
2-Methyl (%) / 5-Chloro (%) ([3]; 11.8% DHP, 12 days): 0.6%
2-Methyl (%) / 5-Chloro (%) ([3]; 16.7% DHP, 0 days): 9.7%
2-Methyl (%) / 5-Chloro (%) ([3]; 16.7% DHP, 12 days): 0.5%
2-Methyl (%) / 5-Chloro (%) ([3]; 21.1% DHP, 0 days): 9.2%
2-Methyl (%) / 5-Chloro (%) ([3]; 21.1% DHP, 12 days): 0.4%
stabilization with norbornene (in words) [4]: completely stabilized
2-Methyl (%) / 5-Chloro (%) ([5]; 0% norbornene, 0 days): 12.2%
2-Methyl (%) / 5-Chloro (%) ([5]; 0% norbornene, 7 days): 0.23%
2-Methyl (%) / 5-Chloro (%) ([5]; 1.2% norbornene, 0 days): 16.7%
2-Methyl (%) / 5-Chloro (%) ([5]; 1.2% norbornene, 7 days): 0.09%
2-Methyl (%) / 5-Chloro (%) ([5]; 2.3% norbornene, 0 days): 16.5%
2-Methyl (%) / 5-Chloro (%) ([5]; 2.3% norbornene, 7 days): 0.09%
2-Methyl (%) / 5-Chloro (%) ([5]; 4.2% norbornene, 0 days): 16.2%
2-Methyl (%) / 5-Chloro (%) ([5]; 4.2% norbornene, 7 days): 0.07%
2-Methyl (%) / 5-Chloro (%) ([5]; 8.1% norbornene, 0 days): 15.7%
2-Methyl (%) / 5-Chloro (%) ([5]; 8.1% norbornene, 7 days): < 0.1%
2-Methyl (%) / 5-Chloro (%) ([5]; 14.1% norbornene, 0 days): 14.7%
2-Methyl (%) / 5-Chloro (%) ([5]; 14.1% norbornene, 7 days): 13.5%
2-Methyl (%) / 5-Chloro (%) ([5]; 14.1% norbornene, 21 days): < 0.1%
loss of 5-chloro-2-methyl-3-isothiazolone ([6]; 1-tetradecene as stabilizer, by eight weeks at 55° C): complete loss
loss of 5-chloro-2-methyl-3-isothiazolone ([6]; 1 part by weight norbornene, eight weeks at 55° C): No loss
5-chloro-2-methyl-3-isothiazolone left ([6]; control, no norbornene, eight weeks at 55° C): no 5-chloro-2-methyl-3-isothiazolone left
5-chloro-2-methyl-3-isothiazolone remaining ([6]; 672 h): 86%
5-chloro-2-methyl-3-isothiazolone remaining ([6]; 1344 h): 100%

stabilizer function (in words) [1]: functions as a stabilizer
Compound: C1=CCCCC1 [cyclohexene]
